Measurements reported in US12065434B2, “Metabolites of GLP1R agonists” (Pfizer Inc., priority 2020, dated 2024).

How the values were obtained:
[1] = Metabolites of Compound 2 in rat bile following a 1.0 mg/kg IV bolus dose; assay type: in vivo; settings: 1.0 mg/kg IV bolus dose of Compound 2, bile duct cannulated rats, pooled 0-24 hrs
Description: Plasma and bile samples were obtained from a bile duct cannulated rat experiment (Study PK-0111) in which a 1.0 mg/kg IV bolus dose was administered to fed male rats (N=3). No control plasma was available from this experiment.
Bile samples (0-3, 3-7, and 7-24 hrs) from individual animals were pooled in proportion to the amount collect in each interval. Then 0.5 mL of each individual pool was combined to prepare a composite sample for analysis.
Pooled plasma and bile samples were extracted with ACN containing 0.1% formic acid, and after centrifugation at 1900×g, the supernatant was transferred to clean tubes and evaporated under N2 in a Turbovap set at 37° C. Residues were reconstituted in mobile phase (5:95 v:v ACN:0.1% aqueous formic acid) prior to analysis by HPLC/UV/MS^n.
(§1) Samples were analyzed by HPLC/UV/MS^n using a Thermo Orbitrap Elite mass spectrometer in conjunction with a Thermo Open Accela UHPLC system. A 3.0×150 mm, 2.5 μm Acquity CSH C18 HPLC column (Waters) was heated to 45° C. for separation of analytes. The mobile phase was a gradient of A): water containing 0.1% formic acid, and B): acetonitrile. The flow rate was 450 μL/min, and the following gradient program was utilized: […]
(§2) UV absorbance was monitored with a photo-diode array detector from 220-450 nm. The mass spectrometer was operated in positive-ion mode with a HESI ion source at a potential of 3.0 kV, and capillary and source heater temperatures of 380 and 300° C., respectively. Sheath, auxiliary, and sweep gas flows were set to 45, 10, and 2 units, respectively. Full scan mass spectra were acquired over the range 120-1200 m/z at a resolving power of 30,000 (specified at m/z 400). Data-dependent MS^n spectra were acquired in an automated fashion at 15,000 resolving power using CID and HCD fragmentation with normalized collision energy settings of 28 and 65 V, respectively.
(§3) Metabolites were characterized by comparisons of mass spectral fragmentation patterns with that of a Compound 2 standard. All HPLC/UV/MS^n data were processed using Xcalibur v. 2.2, and integrated UV peak areas were subjected to weighted UV binning procedures utilizing an Excel template.

mouse hepatocytes = assay: In vitro metabolism of Compound 2 in mouse cryopreserved hepatocytes; assay type: in vitro ADME; set-up: key to Relative abundance of metabolite of Compound 2, Mouse: ND Not detected.; trace: Trace: observed by HPLC/MS measurements only.; + Minor as assessed by HPLC/UV measurements; ++ moderate as assessed by HPLC/UV measurements; +++ major as assessed by HPLC/UV measurements.; * m/z 593 and m/z 505 co-eluted in rabbit hepatocytes.; ** m/z 591 c and m/z 593 were merged in human hepatocytes and Hepatopack.; *** m/z 607 and m/z 751 b were merged in rabbit hepatocytes; settings: for metabolite of Compound 2 observed in mouse hepatocyte incubations: 10 μM Compound 2, 7.5×10^5 cells/mL, 1 and 4 hrs composite
Description: (§4) Male CD-1 mouse hepatocytes (lot YHL), male Wistar-Han rat hepatocytes (Celsius; product number: M000065; lot: SLA), female New Zealand rabbit hepatocytes (lot 1510147), male cryopreserved cynomolgus monkey hepatocytes (Celsius; product number: M00305; lot: DNB) and mixed-gender cryopreserved human hepatocytes (Bioreclamation; product number: S01988; lot: DCM) were obtained for the hepatocyte in-vitro assessments.
(§5) At time 0 hrs 550 μL aliquots were removed from incubations and quenched with 5 volumes of ACN containing 0.1% formic acid. At 1 and 4 hrs, 275 μL aliquots were removed and quenched as above; these were combined in the same tube to prepare a composite sample. For all hepatocyte experiments, samples were processed by centrifugation at 1900×g for 5 minutes, and then the supernatant was transferred to clean glass tubes and evaporated to dryness under a stream of N2 using a Turbovap at 37° C. Sample residues were reconstituted in mobile phase prior to analysis by HPLC/UV/MS^n.
as §1, §2, §3

[2] = test system: human co-cultured hepatocytes (Hepatopack); assay: In vitro metabolism of Compound 2 in human micropatterned co-cultured hepatocytes (Hepatopack); assay type: in vitro ADME; set-up: key to Relative abundance of metabolite of Compound 2, Hepatopack: ND Not detected.; trace: Trace: observed by HPLC/MS measurements only.; + Minor as assessed by HPLC/UV measurements; ++ moderate as assessed by HPLC/UV measurements; +++ major as assessed by HPLC/UV measurements.; * m/z 593 and m/z 505 co-eluted in rabbit hepatocytes.; ** m/z 591 c and m/z 593 were merged in human hepatocytes and Hepatopack.; *** m/z 607 and m/z 751 b were merged in rabbit hepatocytes
From the text: Micro-patterned co-cultured (MPCC) hepatocyte 24-well plates containing human donors (16 wells each) were provided by Ascendance Biotechnology (formerly Hepregen Corp. (Medford, MA). [see Wang W W W, Khetani S R, Krzyzewski S, et al. Assessment of a Micropatterned Hepatocyte Coculture System to Generate Major Human Excretory and Circulating Drug Metabolites. Drug Metab Dispos 2010; 38(10):1900-5.] The MPCCs were created at Ascendance Biotechnology and maintained in serum containing medium for 5-6 days to allow for stabilization of the co-cultures prior to shipment. A mixed-gender cryopreserved pool of 10 human donors (X008001-P; lot YFA) was used to seed the plates and was purchased from BioreclamationIVT (Westbury, NY). MPCC hepatocytes are plated with fibroblasts in a 1:3 ratio with ˜25,000 hepatocytes/well in a 24-well plate. 24-Well MPCC plates were shipped to Pfizer, fresh medium (400 μL/well) was applied and cultures were kept at 37° C. with […] and 95% relative humidity for two days. Micropatterned co-cultures containing pooled hepatocytes were allowed 7 days to fully stabilize with respect to liver-specific functions. […] At respective time points (0, 2, and 7 days), the culture medium was removed and mixed with 4 volumes of ACN, then stored frozen at −40° C. until samples could be analyzed. Samples were subsequently processed by the addition of 2.5 mL of 1:1 ACN:MeOH containing 0.1% formic acid. After vortexing, the samples were centrifuged at 1900×g for 5 min, then the supernatant was transferred to 15 mL conical tubes and evaporated under N2 using a Turbovap set at 37° C. The residues were reconstituted in mobile phase (5:95 v:v ACN:0.1% aqueous formic acid) prior to analysis by HPLC/UV/MS^n.
as §1
as §2, with “Data-dependent MS^n spectra were acquired in an automated fashion at 15,000 resolving power using CID and HCD fragmentation with normalized collision energy settings of 28 and 65 V, respectively.” left out

monkey hepatocytes = assay: In vitro metabolism of Compound 2 in monkey cryopreserved hepatocytes; assay type: in vitro ADME, cynomolgus monkey; set-up: key to Relative abundance of metabolite of Compound 2, Monkey: ND Not detected.; trace: Trace: observed by HPLC/MS measurements only.; + Minor as assessed by HPLC/UV measurements; ++ moderate as assessed by HPLC/UV measurements; +++ major as assessed by HPLC/UV measurements.; * m/z 593 and m/z 505 co-eluted in rabbit hepatocytes.; ** m/z 591 c and m/z 593 were merged in human hepatocytes and Hepatopack.; *** m/z 607 and m/z 751 b were merged in rabbit hepatocytes; settings: for metabolite of Compound 2 observed in monkey hepatocyte incubations: 10 μM Compound 2, 7.5×10^5 cells/mL, 1 and 4 hrs composite
Description: as §4, §5, §1, §2, §3

| detected in rat bile [1] | detected in rat bile ([1]; listed as m/z 331) | metabolite of Compound 2 observed in mouse hepatocyte incubations (mouse hepatocytes) | Relative abundance of metabolite of Compound 2, Mouse (mouse hepatocytes; mouse cryopreserved hepatocytes, HPLC/UV/MS) | Relative abundance of metabolite of Compound 2, Hepatopack ([2]; human co-cultured hepatocytes (Hepatopack), HPLC/UV/MS) | metabolite of Compound 2 observed in monkey hepatocyte incubations (monkey hepatocytes) | Relative abundance of metabolite of Compound 2, Monkey (monkey hepatocytes; monkey cryopreserved hepatocytes, HPLC/UV/MS) | detected in rat bile ([1]; listed as m/z 751b) | abundance of metabolite of Compound 2 in human Hepatopack system ([2]; Compound 2 tris salt 20 μM, up to 7 days) | Structure (SMILES) |
| --- | --- | --- | --- | --- | --- | --- | --- | --- | --- |
| observed | detected | observed in all hepatocyte incubations | + | trace | observed in all hepatocyte incubations | + | – | – | C[C@]1(c2ccc(Cl)cn2)Oc2cccc(C3CCNCC3)c2O1 [Metabolite 331] |
| observed | – | observed in all hepatocyte incubations | – | – | observed in all hepatocyte incubations | – | detected | most abundant metabolites | C[C@]1(c2ccc(Cl)cn2)Oc2cccc(C3CCN(Cc4nc5ccc(C(=O)O[C@@H]6O[C@H](C(=O)O)[C@@H](O)[C@H](O)[C@H]6O)cc5n4C[C@@H]4CCO4)CC3)c2O1 [Metabolite 751b] |
